Data from US20250270165A1, “COMPOSITIONS FOR AND METHODS OF MODULATING RNA STABILITY” (Duke University, priority 2022, published 2025).
Values joined by “and” are separate entries in the source; they are usually repeats but may differ in a detail not shown here. Equal values may be shown once. “Also recorded” adds a separate entry of the source. Read-outs that look alike come from different tables or passages of the source. Blank lines part the entries; values can stand above or below the molecule they belong to.

Key:
MALAT1 triple helix [1] = experiment: RiboGreen indicator displacement assay (IDA); assay type: binding, human
Procedure: Indicator Displacement Assay (DIA).
The protocol was adapted from a previously reported procedure. (Donlic A, et al. (2020) Nucleic Acids Res. 48(14):7653-7664). A serial dilution of the MALAT1 triple helix RNA was performed in HEPES buffer (20 mM HEPES-KOH, 52.6 mM KCl. 0.1 mM MgCl2, pH=7.4) in a 96 well plate in triplicate. […] of each dilution were transferred to a 384 well plate followed by […] of a 500 nM solution of RiboGreen dye in the same buffer (Invitrogen™). The plates were excited at 487 nm (8 nm slit) and emission was recorded at 530 nm (8 nm slit, focal height 11.3 mm) using a CLARIOstar plate reader (BMG labtech). The affinity of the dye for the RNA construct was determined by fitting the raw fluorescence in GraphPad Prism version 8.3.1 for Macintosh (GraphPad Software, La Jolla California USA, (www.graphpad.com)) by fitting to the Log[Agonist]vs. response-variable slope model that using Equation (1) below.
where Y is normalized % change in fluorescence intensity, X is RNA concentration, Bottom is lowest fluorescence % change and Top is highest fluorescence % change. Affinity of the dye for the RNA construct was used as the ideal RNA concentration (174 nM) for small molecule titrations.
A serial dilution of small molecule (0, 0.5 μM, […], 2.5 μM, […], 7.5 μM, 10.0 μM, 12.5 μM, 25 μM, 50 μM, 75 μM, 100 μM, 125 µM, 150 µM, 250 μM, 500 µM) was performed in HEPES buffer (20 mM HEPES-KOH, 52.6 mM KCl, 0.1 mM MgCl2, pH=7.4) in a 96 well plate in triplicate. Then, 8 μL of each dilution were transferred to a 384 well plate, followed by 8 μL of a 174 nM solution of MALAT1 RNA and 0.5 mM of RiboGreen™ (Invitrogen™). The RNA was previously annealed by heating to 95° C. for 5 minutes and cooling to 0° C. on ice for 30 minutes. The 384 well plates were shaken for 5 minutes, centrifuged at 4000 rpm for 1 minute, and incubated in the dark for 20 minutes. The plates were excited at 487 nm (8 nm slit) and emission was read at 525 nm (8 nm slit, focal height […]) using a CLARIOstar plate reader (BMG Labtech). Percent fluorescence indicator displacement (% FID) was calculated by subtracting and, subsequently, dividing by the blank wells with RNA-dye complex and no small molecule as shown in Equation (2).
Where F0 is the fluorescence of the blank well with RNA+dye and no small molecule and F is the fluorescence of the well with all three components (RNA+dye+small molecule).
Each technical triplicate was averaged, and the resulting FID values were averaged between three independent experiments. The binding curve and Log(CD50) value was obtained by using a non-linear fit curve (Log[Agonist]vs. response) with variable slope at four parameters (GraphPad Prism Software version for Macintosh 8.3.1, La Jolla, California, USA (www.graphpadprism.com)) as shown in Equation 1. Reported values are averages of three independent experiments standard deviation.

MALAT1 triple helix [2] = experiment: Differential scanning fluorimetry (DSF), triplex thermal stability; assay type: binding, human
Procedure: Differential Scanning Fluorimetry. Differential scanning fluorimetry experiments were performed as previously reported. (Donlic A, et al. (2020) Nucleic Acids Res. 48(14):7653-7664). All experiments were performed in white 96 well plates in a LightCycler® 96 (Roche). In a typical experiment, 4 μM of RNA was annealed in the same buffer used for indicator displacement assays (20 mM HEPES-KOH, 52.6 mM KCl, 0.1 mM MgCl2, pH=7.4) by heating at 95° C. for 3 minutes, snap-cooling on ice for 10 minutes, and leaving the solution at room temperature for 1 hr. Then, 42 μL of this solution was aliquoted to wells and 5 μM of ligand was added (2.5 μL of water, 2.0 μL of DMSO, 0.5 μL of 500 μM small molecule stock). The mixture was left to incubate at room temperature for 5 minutes, after which 3 μL of a 20 µM Quant-iT™ RiboGreen™ (ThermoFisher Scientific) dye stock solution in appropriate buffer was added to each well. The 96 well plate was then sealed with an optically clear foil and centrifuged for 1 minute at 4000 rpm prior to being placed in the instrument. The light cycler program was created by selecting the melting curve method; fluorescence intensity was monitored using the SYBR Green I/HRM dye filter combination (465-510 nm) from 37-98° C. at a ramp rate of 0.01° C./second with 150 acquisitions per ° C. Melting profiles were obtained by Tm analysis in the LightCycler® 96 software (SW 1.1).

MALAT1 triple helix [3] = experiment: RNase A enzymatic degradation assay; assay type: biochemical, human; details: for stabilizing or destabilizing compound as listed in the description: listing in an aspect, degradation in an enzymatic assay versus control
Procedure: RNase A Enzymatic Degradation Assay.
The procedure was adapted from a published protocol for exonucleolytic enzymatic degradation assay. (Donlic A, et al. (2020) Nucleic Acids Res. 48(14):7653-7664). The MALAT1 destabilizing small molecules published by Le Grice (Abulwerdi F A, et al. (2019) ACS Chem Biol. 14(2):223-235) and co-workers SM5 and SM16 were purchased from ChemBridge. For a typical 70 μL reaction, […] of MALAT1 triple helix RNA was annealed in the same buffer used for IDA and DSF experiments (20 mM HEPES-KOH, 52 mM KCl, 0.1 mM MgCl2, pH=7.4) by heating at 95° C. for 3 minutes, snap-cooling on ice for 10 minutes, and leaving the solution at room temperature for 1 hr.
RNase A enzyme (ThermoFisher) was diluted to 1.46 nM and incubated with 1 M NaCl for 30-35 minutes to achieve ssRNA selectivity as reported. (Struhl K, et al. (1989) Current Protocols in Molecular Biology. 8(1):3.13.1-3.13.3). Next, the RNA was mixed with […] of a CC-rich DNA duplex, 0.2 mM of small molecule/DMSO and incubated at room temperature for 20 minutes. Following the incubation, […] of RNase A was added, and the reaction was incubated at 37° C. for 1 hour in a thermal cycler with a heated lid (Eppendorf). 4 μL timepoint aliquots were taken at 0, 5, 10, 30, and 60 minutes, 4 μL of 2×RNA loading dye was added to each aliquot (ThermoFischer Scientific), and samples were stored at −80° C. prior to gel analysis. Reactions were analyzed on pre-cast 15% PAGE-Urea gels (Invitrogen) in 1×TBE buffer. Aliquots were thawed from −80° C. storage and heated to 95° C. for 15 minutes prior to gel loading and […] were loaded in each well. Gels were run for 45 minutes at 180 V, stained with Diamond™ Nucleic Acid dye (Promega), and visualized on an iBright 500 (ThermoFisher). DMSO controls were ran with every set of 4 small molecules to ensure consistency of enzyme activity and RNA integrity. Gel band intensity of the MALAT1 triple helix and DNA loading control were quantified using ImageJ software. (Rueden C T, et al. (2017) BMC Bioinformatics. 18(1):529).
To quantify time-dependent endonucleolytic degradation for each sample, the intensity was normalized using Equation (3), and fold-difference was calculated as listed in Equation (4) as previously reported. (Donlic A, et al. (2020) Nucleic Acids Res. 48(14):7653-7664).
where y is fold-difference of the exonucleolytic degradation for the specific sample, with normalized areas for its specific time point x and time point 0 calculated as described in Equation (3). Percent RNA degraded was calculated for every time point using Equation (5).
% RNA degraded=(Normalized area (t0)−Normalized area (tx))*100 (Equation 5)
Experimental results shown in FIG. 6C are plotted as three independent replicates and standard deviation between replicates as error bars. Relative fold change between treated condition and DMSO was calculated from Equation (6).

LNCaP cells = experiment: MTT assay in LNCaP cells; assay type: cell-based, human; details: for IC50: Homo sapiens
Text: The MTT reagent (3-(4,5-dimethylthiazol-2-yl)-2,5-diphenyl-2H-tetrazolium bromide) is a mono-tetrazolium salt that consists of a positively charged quaternary tetrazole ring core containing four nitrogen atoms surrounded by three aromatic rings including two phenyl moieties and one thiazolyl ring. Reduction of MTT results in disruption of the core tetrazole ring and the formation of a violet-blue water-insoluble molecule called formazan. The MTT reagent can pass through the cell membrane as well as the mitochondrial inner membrane of viable cells presumably due to its positive charge as well as its lipophilic structure and is reduced to formazan by metabolically active cells. The chromogenic nature of this redox chemical reaction provides a colorimetric-based measurement of intracellular formazan production based on which the MTT assay was developed. Consequently, the assay has extensive utility as a cell metabolic activity assay.
In the first set of […] experiments, four (4) members of the small molecule library were examined in a MTT assay. […] The IC50 values and trends were similar to the apparent small molecule affinities for MALAT-1, supporting a MALAT-1 related mechanism for the toxicity. […] Ongoing cytotoxicity studies using other DMZ small molecule analogs (as well as DMZ-5, DMZ-P13, and DMZ-P17) continue to illuminate mechanism of action regarding toxicity to cancer cells.

[4] = 5-minute time point, relative to DMSO control
[5] = 48 hours, read-out: IC50 at 48 hours

Structure (SMILES): N=C(NCCc1cccnc1)c1cccc(/N=N/Nc2cccc(C(=N)NCCc3cccnc3)c2)c1 [DMZ-M3]
affinity for the MALAT1 triple helix (IDA), in words (MALAT1 triple helix [1]): moderate affinity
effect on MALAT1 triplex thermal stability (DSF), in words (MALAT1 triple helix [2]): negligible thermal stabilization

Structure (SMILES): N=C(NCc1ccccc1)c1cccc(/N=N/Nc2cccc(C(=N)NCc3ccccc3)c2)c1 [DMZ-M4]
affinity for the MALAT1 triple helix (IDA), in words (MALAT1 triple helix [1]): mediocre affinity
CD50 (50% competitive displacement dose) (MALAT1 triple helix [1]; 16-point titration, 20 mM HEPES-KOH, 52 mM KCl, 0.1 mM MgCl2, pH 7.4): 36.6 µM
effect on MALAT1 triplex thermal stability (DSF), in words (MALAT1 triple helix [2]): increases in thermal stability; also recorded: mediocre affinity and thermal stabilization
increase of the amount of MALAT1 degraded at 5 minutes (MALAT1 triple helix [3]; 5-minute time point): 2 fold and > 2 fold
stabilizer or destabilizer of MALAT1 triplex (RNase A degradation) (MALAT1 triple helix [3]; [4]): destabilizers

Structure (SMILES): N=C(NCc1ccc(-c2ccccc2)cc1)c1cccc(/N=N/Nc2cccc(C(=N)NCc3ccc(-c4ccccc4)cc3)c2)c1 [DMZ-M7]
IC50 (LNCaP cells; [5]): 2900 nM

Structure (SMILES): N=C(NCc1ccc(Cl)cc1)c1ccccc1/N=N/Nc1ccccc1C(=N)NCc1ccc(Cl)cc1 [DMZ-O5]
stabilizer or destabilizer of MALAT1 triplex (RNase A degradation) (MALAT1 triple helix [3]; [4]): much stronger destabilizing effect than DMZ-P5

Structure (SMILES): N=C(NCc1ccccc1Cl)c1ccccc1/N=N/Nc1ccccc1C(=N)NCc1ccccc1Cl [DMZ-O6]
stabilizing or destabilizing compound as listed in the description (MALAT1 triple helix [3]): destabilizing; also recorded: stabilizing

Structure (SMILES): CCN(CCCCNC(=N)c1ccc(N/N=N/c2ccc(C(=N)NCCCN(CC)Cc3ccccc3)cc2)cc1)Cc1ccccc1 [DMZ-P14]
stabilizing or destabilizing compound as listed in the description (MALAT1 triple helix [3]): stabilizing; also recorded: destabilizing

Second part, led by results:

IC50 relative to other tested library members, in words (LNCaP cells): higher IC50
Structure (SMILES): CN1CCN(CCNC(=N)c2cccc(/N=N/Nc3cccc(C(=N)NCCN4CCN(C)CC4)c3)c2)CC1 [DMZ-M10]

affinity for the MALAT1 triple helix (IDA), in words (MALAT1 triple helix [1]): moderate affinity
Structure (SMILES): N=C(NCc1ccco1)c1cccc(/N=N/Nc2cccc(C(=N)NCc3ccco3)c2)c1 [DMZ-M15]
effect on MALAT1 triplex thermal stability (DSF), in words (MALAT1 triple helix [2]): negligible thermal stabilization
stabilizing or destabilizing compound as listed in the description (MALAT1 triple helix [3]): stabilizing; also recorded: destabilizing

stabilizing or destabilizing compound as listed in the description (MALAT1 triple helix [3]): destabilizing
Structure (SMILES): CN(C)c1ccc(CN2CCC(CCNC(=N)c3ccc(/N=N/N(C)c4ccc(C(=N)NCCC5CCN(Cc6ccc(N(C)C)cc6)CC5)cc4)cc3)CC2)cc1 [DMZ-NMe-P38]

stabilizing or destabilizing compound as listed in the description (MALAT1 triple helix [3]): destabilizing
Structure (SMILES): CN(/N=N/c1ccc(C(=N)NCCC2CCN(Cc3ccccc3)CC2)nc1)c1ccc(C(=N)NCCC2CCN(CC3C=CC=CC3)CC2)nc1 (stereo not shown) [DMZ-NMe-mPy-P1]

affinity for the MALAT1 triple helix (IDA), in words (MALAT1 triple helix [1]): no affinity
Structure (SMILES): N=C(NCc1ccccc1)c1ccccc1/N=N/Nc1ccccc1C(=N)NCc1ccccc1 [DMZ-O4]

stabilizer or destabilizer of MALAT1 triplex (RNase A degradation) (MALAT1 triple helix [3]; [4]): destabilizers
IC50 relative to other tested library members, in words (LNCaP cells): much higher IC50
Structure (SMILES): N=C(N)c1ccc(/N=N/Nc2ccc(C(=N)N)cc2)cc1 [DMZ-P0, diminazene, reference compound]
effect on MALAT1 triplex thermal stability (DSF), in words (MALAT1 triple helix [2]): increases in thermal stability

stabilizer or destabilizer of MALAT1 triplex (RNase A degradation) (MALAT1 triple helix [3]; [4]): destabilizers
Structure (SMILES): CN(C)CCCNC(=N)c1ccc(/N=N/Nc2ccc(C(=N)NCCCN(C)C)cc2)cc1 [DMZ-P1]
effect on MALAT1 triplex thermal stability (DSF), in words (MALAT1 triple helix [2]): increases in thermal stability
effect on Tm1 (ΔTm1) (MALAT1 triple helix [2]; equimolar ratio of RNA:small molecule, compared to DMSO vehicle): approximately 6.1 °C
graded stabilizer/destabilizer class (change in degradation) (MALAT1 triple helix [3]; [4]): weak destabilizer (weak destabilizer (<50% increase in degradation))

fold higher affinity with the para scaffold versus the ortho scaffold (DMZ-O5) (MALAT1 triple helix [1]; subunit R-5): 13 fold
Structure (SMILES): N=C(NCc1ccc(Cl)cc1)c1ccc(/N=N/Nc2ccc(C(=N)NCc3ccc(Cl)cc3)cc2)cc1 [DMZ-P5]

IC50 (LNCaP cells; [5]): 4100 nM
IC50 (LNCaP cells; 72 hours, read-out: IC50 at 72 hours): 2700 nM
Structure (SMILES): N=C(NCCC1CCN(Cc2ccccc2)CC1)c1ccc(/N=N/Nc2ccc(C(=N)NCCC3CCN(Cc4ccccc4)CC3)cc2)cc1 [DMZ-P13]
